Patent US8598339B2, “Withanolide isolated from Physalis longifolia and analogs and methods of use thereof” (University of Kansas, priority 2011, dated 2013)

Experiments:
[1] = system: hsf1 and client proteins of Hsp90 in Hs766T cells; assay: Western blot, Hs766T; assay type: cell-based
[2] = system: HSF1, Hsp70 and Hsp40 mRNA; assay: HSF1, Hsp70 and Hsp40 mRNA levels; assay type: cell-based; conditions: Control 1.0
Experimental: Levels of HSF1, Hsp70 and Hsp40 mRNA were also determined in response to treatment with SX002 or X003 for 8 or 16 hours.

NCI-H727 cells = assay: PARP cleavage and caspase 3 activation, NCI-H727; assay type: cell-based; conditions: 1 μM
Experimental: In similar analysis with X003, 50% of UMSCC-2 HNSCC cells underwent apoptosis (early and late) at 1 μM, while 90% of cells underwent apoptosis at 3 μM. Apoptosis with 1 μM X003 was confirmed with PARP cleavage and caspase 3 activation in NCI-H727 cells.

[3] = system: hsf1 and client proteins of Hsp90 in MIA PaCa-2 cells; assay: Western blot, MIA PaCa-2; assay type: cell-based
[4] = system: Hs766T pancreatic cancer cells; assay: Co-treatment with carfilzomib, apoptosis, Hs766T; assay type: cell-based; conditions: 0.1, 0.2 or 0.3 μM X003 with carfilzomib (10 nM)
Experimental: To determine whether the instant withanolides could be used in combination with other treatment regimes, Hs766T pancreatic cancer cells were either treated with 0.1, 0.2 or 0.3 μM X003; 10 or 20 nM carfilzomib; or co-treated with carfilzomib (10 nM) and either 0.1, 0.2 or 0.3 μM X003.

Ames test strain TA100 = assay: Ames test, TA100
MDA-MB-231 cells [5] = assay: Annexin V-FITC/Propidium Iodide apoptosis, MDA-MB-231; assay type: cell-based
Excerpt: Therefore, this cell line was not very sensitive to X001 in this assay.

[6] = system: HCC1937 (BRCA-1 mutant) cells; assay: MTS assay, HCC1937; assay type: cell-based
Experimental: (§1) Cell proliferation was analyzed using MTS assay.

BT20 cells [7] = assay: Cell cycle analysis, BT20; assay type: cell-based; conditions: 2 μM; 24-hour treatment
MRC5 = assay: MTS assay, MRC5; assay type: cell-based; conditions: MRC5 (normal)
Experimental: as §1

BT20 = assay: MTS assay, BT20; assay type: cell-based
Experimental: as §1

HCC1937 cells = assay: Clonogenic assay, HCC1937; assay type: cell-based; conditions: 1-2 μM; treated 24 hours, cultured two weeks
[8] = system: Salmonella typhimurium TA98; assay: Cytotoxicity in tester strain TA98 without S9; assay type: cell-based
Ames test strain TA98 = assay: Ames test, TA98
MDA-MB-231 = assay: MTS assay, MDA-MB-231; assay type: cell-based
Experimental: as §1

[9] = system: DRO81-1 medullary thyroid cancer cells; assay: PARP cleavage, DRO81-1; assay type: cell-based
[10] = system: caspase-3, PARP, BRCA-1, HSF1, mutant p53, Notch1, Jagged1 in MDA-MB-231 cells; assay: Western blot, MDA-MB-231; assay type: cell-based; conditions: 24-hour or 48-hour treatment
Ames test strain TA1535 = assay: Ames test, TA1535
BT20 cells [11] = assay: Clonogenic assay, BT20; assay type: cell-based; conditions: 1-2 μM; treated 24 hours, cultured two weeks
MDA-MB-231 cells [12] = assay: Cell cycle analysis, MDA-MB-231; assay type: cell-based; conditions: 4 and 8 μM; 24-hour treatment
[13] = system: Salmonella typhimurium TA1535; assay: Cytotoxicity in tester strain TA1535 without S9; assay type: cell-based
[14] = In vitro metabolism, mouse liver microsomes; assay type: in vitro ADME, mouse (CD-1); conditions: 1.0E-06 M
Experimental: (§2) The in vitro metabolism of […], as compared to known reference compounds, was analyzed using liver microsomes from human, dog (Beagle), rat (Sprague-Dawley) and mouse (CD-1). […] Results are from two independent tests.

HMLEC = assay: MTS assay, HMLEC; assay type: cell-based; conditions: HMLEC (normal)
Experimental: as §1

DRO81-1 cells = assay: Annexin V/PI staining and flow cytometry, DRO81-1; assay type: cell-based; conditions: 24-hour exposure
[15] = In vitro metabolism, rat liver microsomes; assay type: in vitro ADME, rat (Sprague-Dawley); conditions: 1.0E-06 M
Experimental: as §2

[16] = system: RET, mTOR, 4E-BP1, P70S6 kinase, akt, pERK in medullary thyroid cancer cells; assay: Mechanistic pathway protein levels in medullary thyroid cancer cells; assay type: cell-based; conditions: 24 hours; 0.5, 1, 3, and 6 μM
Experimental: Additional analysis of X005, X032 and X033 was carried out in medullary thyroid cancer cells. […] Therefore, this analysis indicates the importance of this double bond in the A-ring to anti-cancer activity.

CC(=O)OCC1=C(C)C[C@H]([C@@H](C)C2CC[C@H]3[C@@H]4C[C@H]5O[C@]56[C@@H](OC(C)=O)C=CC(=O)[C@]6(COC(C)=O)[C@H]4CC[C@]23C)OC1=O (stereo partly drawn) [Compound X003, 4,19,27-triacetyl X001]
stress and client protein response (western blot) [1]: induced oxidative and proteotoxic stress, while depleting hsf1 and client proteins of Hsp90 | HSF1 mRNA level ([2]; 8 hours): 1.2 | HSP40 mRNA level ([2]; 8 hours): 8.3 | HSP70 mRNA level ([2]; 8 hours): 30.8 | HSF1 mRNA level ([2]; 16 hours): 1.1 | HSP40 mRNA level ([2]; 16 hours): 14.2 | HSP70 mRNA level ([2]; 16 hours): 183.1 | apoptosis by PARP cleavage and caspase 3 activation (NCI-H727 cells): confirmed | stress and client protein response (western blot) [3]: induced oxidative and proteotoxic stress, while depleting hsf1 and client proteins of Hsp90 | apoptosis on co-treatment with carfilzomib [4]: enhances

CC1=C(CO)C(=O)O[C@@H]([C@@H](C)C2CC[C@H]3[C@@H]4C[C@H]5O[C@]56[C@@H](O)C=CC(=O)[C@]6(CO)[C@H]4CC[C@]23C)C1 (stereo partly drawn) [Compound X001]
Positive Significance (− to +++) (Ames test strain TA100; 1.0E−04 M, TA100 +S9): − | Positive Significance (− to +++) (Ames test strain TA100; 1.0E−04 M, TA100 −S9): − | Positive Significance (− to +++) (Ames test strain TA100; 1.0E−05 M, TA100 +S9): − | Positive Significance (− to +++) (Ames test strain TA100; 1.0E−05 M, TA100 −S9): − | Positive Significance (− to +++) (Ames test strain TA100; 5.0E−05 M, TA100 +S9): − | Positive Significance (− to +++) (Ames test strain TA100; 5.0E−05 M, TA100 −S9): − | Positive Significance (− to +++) (Ames test strain TA100; 5.0E−06 M, TA100 +S9): − | Positive Significance (− to +++) (Ames test strain TA100; 5.0E−06 M, TA100 −S9): − | concentration needed to induce apoptosis (MDA-MB-231 cells [5]): at least 4 μM | Log ECF [6]: 0.71 | cell cycle effect (BT20 cells [7]): G2/M arrest | Log ECF (MRC5): 4.59 | Log ECF (BT20): 0.91 | colony formation (HCC1937 cells): strongly inhibited | Cytotoxicity (% of Control) ([8]; 1.0E−04 M): 98 % of Control | Cytotoxicity (% of Control) ([8]; 1.0E−05 M): 86 % of Control | Cytotoxicity (% of Control) ([8]; 1.3E−06 M): 89 % of Control | Cytotoxicity (% of Control) ([8]; 2.5E−05 M): 86 % of Control | Cytotoxicity (% of Control) ([8]; 2.5E−06 M): 87 % of Control | Cytotoxicity (% of Control) ([8]; 5.0E−05 M): 85 % of Control | Cytotoxicity (% of Control) ([8]; 5.0E−06 M): 86 % of Control | Cytotoxicity (% of Control) ([8]; 6.3E−07 M): 95 % of Control | Positive Significance (− to +++) (Ames test strain TA98; 1.0E−04 M, TA98 +S9): − | Positive Significance (− to +++) (Ames test strain TA98; 1.0E−04 M, TA98 −S9): − | Positive Significance (− to +++) (Ames test strain TA98; 1.0E−05 M, TA98 +S9): − | Positive Significance (− to +++) (Ames test strain TA98; 1.0E−05 M, TA98 −S9): − | Positive Significance (− to +++) (Ames test strain TA98; 5.0E−05 M, TA98 +S9): − | Positive Significance (− to +++) (Ames test strain TA98; 5.0E−05 M, TA98 −S9): − | Positive Significance (− to +++) (Ames test strain TA98; 5.0E−06 M, TA98 +S9): − | Positive Significance (− to +++) (Ames test strain TA98; 5.0E−06 M, TA98 −S9): − | Log ECF (MDA-MB-231): 1.25 | cleavage of PARP starting at (concentration) [9]: 500 nM | levels of BRCA-1, HSF1, mutant p53, Notch1 and Jagged1 ([10]; 1, 2, 4, or 8 μM): decreased | caspase-3 activation (concentration) ([10]; tested 1, 2, 4, or 8 μM): 4 to 8 µM | Positive Significance (− to +++) (Ames test strain TA1535; 1.0E−04 M, TA1535 +S9): − | Positive Significance (− to +++) (Ames test strain TA1535; 1.0E−04 M, TA1535 −S9): − | Positive Significance (− to +++) (Ames test strain TA1535; 1.0E−05 M, TA1535 +S9): − | Positive Significance (− to +++) (Ames test strain TA1535; 1.0E−05 M, TA1535 −S9): − | Positive Significance (− to +++) (Ames test strain TA1535; 5.0E−05 M, TA1535 +S9): − | Positive Significance (− to +++) (Ames test strain TA1535; 5.0E−05 M, TA1535 −S9): − | Positive Significance (− to +++) (Ames test strain TA1535; 5.0E−06 M, TA1535 +S9): − | Positive Significance (− to +++) (Ames test strain TA1535; 5.0E−06 M, TA1535 −S9): − | colony formation (BT20 cells [11]): not as potent | cell cycle effect (MDA-MB-231 cells [12]): G2/M arrest | Cytotoxicity (% of Control) ([13]; 1.0E−04 M): 111 % of Control | Cytotoxicity (% of Control) ([13]; 1.0E−05 M): 97 % of Control | Cytotoxicity (% of Control) ([13]; 1.3E−06 M): 99 % of Control | Cytotoxicity (% of Control) ([13]; 2.5E−05 M): 100 % of Control | Cytotoxicity (% of Control) ([13]; 2.5E−06 M): 97 % of Control | Cytotoxicity (% of Control) ([13]; 5.0E−05 M): 109 % of Control | Cytotoxicity (% of Control) ([13]; 5.0E−06 M): 98 % of Control | Cytotoxicity (% of Control) ([13]; 6.3E−07 M): 99 % of Control | Mean % Parent Compound Remaining [14]: 29% | Log ECF (HMLEC): 2.54 | induction of apoptosis (DRO81-1 cells; 5 μM): apoptosis was induced | cells gated toward late apoptosis (DRO81-1 cells; 10 μM): 65% | Mean % Parent Compound Remaining [15]: 31% | pERK levels [16]: increased at higher concentrations | total and phosphorylated protein levels of RET, mTOR, P706S kinase [16]: down-regulated in a dose-dependent manner
